| melting point [°C] | Compound |
| --- | --- |
| 106 to 108 | COc1ccc(-c2nc(NC(=O)c3ccc(OC)c(OC)c3)sc2Cc2ccc([N+](=O)[O-])cc2)cc1 [Example 28, 3,4-dimethoxy-N-[4-(4-methoxy-phenyl)-5-(4-nitro-benzyl)-thiazol-2-yl]-benzamide] |
| 74 to 75 | COc1ccc(-c2nc(NC(=O)c3ccc(OC)c(OC)c3)sc2CCc2ccccc2)cc1 [Example 58, 3,4-dimethoxy-N-[4-(4-methoxy-phenyl)-5-phenylethyl-thiazol-2-yl]-benzamide] |
| 190 to 192 | COc1ccc(-c2nc(NC(=O)c3ccc(C#N)cc3)sc2Cc2ccc([N+](=O)[O-])cc2)cc1 [Example 14, 4-cyano-N-[4-(4-methoxy-phenyl)-5-(4-nitro-benzyl)-thiazol-2-yl]-benzamide] |
| 244 to 245 | N#Cc1ccc(C(=O)Nc2nc(-c3ccc(F)cc3)c(Cc3ccc([N+](=O)[O-])cc3)s2)cc1 [Example 15, 4-cyano-N-[4-(4-fluoro-phenyl)-5-(4-nitro-benzyl)-thiazol-2-yl]-benzamide] |
| 182 to 183 | COc1ccc(-c2nc(N(S(=O)(=O)c3ccc(C)cc3)S(=O)(=O)c3ccc(C)cc3)sc2Cc2ccccc2)cc1 [Example 67, N-[5-benzyl-4-(4-methoxy-phenyl)-thiazol-2-yl]-N-p-tolylsulfonyl-p-tolylsulfonamide] |
| 147 to 148 | COc1ccc(-c2nc(NC(=O)c3ccccc3OC)sc2Cc2ccccc2)cc1 [Example 36, N-[5-benzyl-4-(4-methoxy-phenyl)-thiazol-2-yl]-2-methoxy-benzamide] |
| 216 to 218 | O=C(Nc1nc(-c2ccc(F)cc2)c(Cc2ccc([N+](=O)[O-])cc2)s1)c1cc(F)cc(F)c1 [Example 18, 3,5-difluoro-N-[4-(4-fluoro-phenyl)-5-(4-nitro-benzyl)-thiazol-2-yl]-benzamide] |
| 177 to 178 | COc1ccc(-c2nc(N)sc2Cc2ccccc2)cc1 [Example 1, 5-benzyl-4-(4-methoxy-phenyl)-thiazol-2-ylamine] |
| 170 to 172 | Nc1nc(-c2ccc(O)cc2)c(Cc2ccccc2)s1 [Example 2, 5-benzyl-4-(4-hydroxy-phenyl)-thiazol-2-ylamine] |
| 171 to 172 | COc1ccc(-c2nc(NC(=O)c3ccc(OC)c(OC)c3)sc2CC2CCCCC2)cc1 [Example 48, N-[5-cyclohexylmethyl-4-(4-methoxy-phenyl)-thiazol-2-yl]-3,4-dimethoxy-benzamide] |
| 105 to 106 | COc1ccc(C(=O)Nc2nc(-c3ccccc3)c(Cc3ccc([N+](=O)[O-])cc3)s2)cc1OC [Example 29, 3,4-dimethoxy-N-[5-(4-nitro-benzyl)-4-phenyl-thiazol-2-yl]-benzamide] |
| 217 to 218 | Nc1nc(-c2ccc(F)cc2)c(Cc2ccc([N+](=O)[O-])cc2)s1 [Example 9, 4-(4-fluoro-phenyl)-5-(4-nitro-benzyl)-thiazol-2-ylamine] |
| 78 to 79 | COc1ccc(-c2nc(NC(=O)c3cc(OC)c(OC)c(OC)c3)sc2CCc2ccccc2)cc1 [Example 59, 3,4,5-trimethoxy-N-[4-(4-methoxy-phenyl)-5-phenylethyl-thiazol-2-yl]-benzamide] |
| 146 to 147 | COc1ccc(-c2nc(NC(=O)c3ccccc3)sc2Cc2ccccc2)cc1 [Example 3, N-[5-benzyl-4-(4-methoxy-phenyl)-thiazol-2-yl]-benzamide] |
| 167 to 168 | OCCN(CCO)c1nc(-c2ccc(O)cc2)c(Cc2ccccc2)s1 [Example 76, 4-(5-benzyl-2-[bis-(2-hydroxy-ethyl)-amino]-thiazol-4-yl)-phenol] |
| 150 to 151 | CCCCc1sc(NC(=O)c2ccc(OC)c(OC)c2)nc1-c1ccc(OC)cc1 [Example 63, N-[5-n-butyl-4-(4-methoxy-phenyl)-thiazol-2-yl]-3,4-dimethoxy-benzamide] |

Source: patent publication US8053581B2, “Trisubstituted thiazole compounds, preparations methods, pharmaceutical compositions and medicals uses thereof” (Institute of Pharmacology and Toxicology Academy of …, priority 2006, dated 2011)
